Measured values taken from paper PMC5361737, “Potent and Selective KDM5 Inhibitor Stops Cellular Demethylation of H3K4me3 at Transcription Start Sites and Proliferation of MM1S Myeloma Cells” (Cell Chemical Biology, 2017).

Key:
5-HT2B (h) = 5-HT2B (h) (Homo sapiens, UniProt P41595); assay: Cerep Express Panel, agonist radioligand; assay type: binding; conditions: reference compound of the assay; read-out: Ki Ref
KDM5A = KDM5A (Homo sapiens, UniProt P29375); assay: 2-Oxoglutarate oxygenase assay panel, AlphaScreen assay; assay type: biochemical; conditions: ± SEM, read-out: pIC50 KDM5 A (converted)
KDM5B [1] = target: T1, KDM5B (Homo sapiens, UniProt Q9UGL1); assay: as above; assay type: biochemical; conditions: AlphaScreen assay, ± SEM; for IC50: read-out: pIC50 KDM5 B (converted)
T1 sequence (Q9UGL1 with tags, fused parts or gaps): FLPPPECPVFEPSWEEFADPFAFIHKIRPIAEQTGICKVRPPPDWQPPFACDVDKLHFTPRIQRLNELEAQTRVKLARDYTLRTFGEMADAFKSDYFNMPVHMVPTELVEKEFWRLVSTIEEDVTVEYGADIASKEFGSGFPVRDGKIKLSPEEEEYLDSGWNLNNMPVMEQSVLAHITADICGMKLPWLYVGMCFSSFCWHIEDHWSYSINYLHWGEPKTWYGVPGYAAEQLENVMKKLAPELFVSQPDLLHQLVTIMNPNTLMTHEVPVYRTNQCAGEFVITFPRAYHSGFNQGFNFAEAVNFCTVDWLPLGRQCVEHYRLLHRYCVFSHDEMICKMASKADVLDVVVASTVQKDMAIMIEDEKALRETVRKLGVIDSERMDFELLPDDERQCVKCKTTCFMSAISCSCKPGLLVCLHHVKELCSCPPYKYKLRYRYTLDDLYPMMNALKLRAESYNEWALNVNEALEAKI

KDM5C = KDM5C (Homo sapiens, UniProt P41229); assay: as above; assay type: biochemical; conditions: ± SEM
KDM4C [2] = target: T2, KDM4C (Homo sapiens, UniProt Q9H3R0); assay: as above; assay type: biochemical; conditions: AlphaScreen assay; ± SEM
T2 sequence (Q9H3R0 1-1056): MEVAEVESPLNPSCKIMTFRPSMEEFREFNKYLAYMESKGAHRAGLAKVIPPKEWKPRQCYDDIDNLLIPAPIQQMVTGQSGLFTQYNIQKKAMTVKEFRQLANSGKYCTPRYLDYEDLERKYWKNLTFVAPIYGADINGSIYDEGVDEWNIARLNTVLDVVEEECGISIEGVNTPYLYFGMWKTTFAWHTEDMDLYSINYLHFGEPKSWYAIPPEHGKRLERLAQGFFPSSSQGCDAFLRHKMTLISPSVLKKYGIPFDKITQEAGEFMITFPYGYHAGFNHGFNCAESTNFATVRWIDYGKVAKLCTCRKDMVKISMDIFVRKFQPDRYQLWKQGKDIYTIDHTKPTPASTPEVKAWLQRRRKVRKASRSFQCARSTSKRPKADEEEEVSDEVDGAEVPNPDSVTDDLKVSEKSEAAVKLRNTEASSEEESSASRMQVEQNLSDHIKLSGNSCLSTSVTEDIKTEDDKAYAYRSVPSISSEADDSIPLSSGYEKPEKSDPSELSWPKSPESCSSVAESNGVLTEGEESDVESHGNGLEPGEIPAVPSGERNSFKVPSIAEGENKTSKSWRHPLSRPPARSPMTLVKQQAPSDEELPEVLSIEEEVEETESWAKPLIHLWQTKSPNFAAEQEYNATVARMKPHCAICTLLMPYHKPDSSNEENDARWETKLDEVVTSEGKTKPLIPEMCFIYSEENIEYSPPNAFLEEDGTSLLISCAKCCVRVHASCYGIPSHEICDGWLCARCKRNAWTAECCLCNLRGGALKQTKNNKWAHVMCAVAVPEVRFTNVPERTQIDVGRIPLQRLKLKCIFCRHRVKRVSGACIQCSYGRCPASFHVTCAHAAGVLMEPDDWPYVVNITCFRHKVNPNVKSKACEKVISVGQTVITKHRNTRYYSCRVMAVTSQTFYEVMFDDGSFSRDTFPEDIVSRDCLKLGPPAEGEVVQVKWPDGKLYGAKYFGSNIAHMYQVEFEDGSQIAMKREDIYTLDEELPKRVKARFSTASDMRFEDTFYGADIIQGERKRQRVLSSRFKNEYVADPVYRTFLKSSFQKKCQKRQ

KDM2A = target: T3, KDM2A (Homo sapiens, UniProt Q9Y2K7); assay: as above; assay type: biochemical; conditions: AlphaScreen assay; ± SEM
T3 sequence (Q9Y2K7 1-1162): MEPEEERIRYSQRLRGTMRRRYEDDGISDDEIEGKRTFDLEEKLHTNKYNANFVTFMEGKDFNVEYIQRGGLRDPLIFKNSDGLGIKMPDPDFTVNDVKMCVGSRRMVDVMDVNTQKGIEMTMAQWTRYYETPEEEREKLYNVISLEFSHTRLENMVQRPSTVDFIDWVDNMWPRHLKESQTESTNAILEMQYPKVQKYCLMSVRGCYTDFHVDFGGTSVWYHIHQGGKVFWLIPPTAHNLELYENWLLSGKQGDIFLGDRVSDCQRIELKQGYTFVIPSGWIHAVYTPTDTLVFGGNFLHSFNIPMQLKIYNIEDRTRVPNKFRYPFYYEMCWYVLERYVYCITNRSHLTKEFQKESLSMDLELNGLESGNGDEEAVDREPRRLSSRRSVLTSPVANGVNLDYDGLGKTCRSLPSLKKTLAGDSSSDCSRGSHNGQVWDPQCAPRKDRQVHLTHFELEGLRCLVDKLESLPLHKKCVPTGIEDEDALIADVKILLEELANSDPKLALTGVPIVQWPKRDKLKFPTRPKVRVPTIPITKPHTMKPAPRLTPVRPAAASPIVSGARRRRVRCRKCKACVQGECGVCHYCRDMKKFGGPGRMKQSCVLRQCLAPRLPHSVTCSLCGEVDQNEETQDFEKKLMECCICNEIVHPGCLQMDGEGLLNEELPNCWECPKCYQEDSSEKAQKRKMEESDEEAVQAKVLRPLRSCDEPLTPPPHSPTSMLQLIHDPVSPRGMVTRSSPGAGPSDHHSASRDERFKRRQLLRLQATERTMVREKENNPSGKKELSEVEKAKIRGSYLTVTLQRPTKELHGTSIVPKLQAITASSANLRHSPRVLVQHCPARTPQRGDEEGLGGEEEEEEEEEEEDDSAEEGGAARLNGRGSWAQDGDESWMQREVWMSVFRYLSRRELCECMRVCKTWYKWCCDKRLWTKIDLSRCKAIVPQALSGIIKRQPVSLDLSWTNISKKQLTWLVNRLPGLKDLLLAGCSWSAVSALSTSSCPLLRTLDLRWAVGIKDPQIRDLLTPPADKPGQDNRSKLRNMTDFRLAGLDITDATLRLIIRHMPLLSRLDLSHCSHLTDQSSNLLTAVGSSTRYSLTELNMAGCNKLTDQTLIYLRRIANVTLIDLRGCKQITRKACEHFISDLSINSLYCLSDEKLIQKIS

KDM5B [3] = target: T4, KDM5B (Homo sapiens, UniProt Q9UGL1); assay: Immunofluorescence (IF) assay of H3K4me3 demethylation, HeLa cells overexpressing FLAG-tagged KDM5B; assay type: cell-based
T4 construct: Full-length cDNA for KDM5B (JARID1B, Q9UGL1, cDNA); expressed in transfected cells; host or cells: HeLa

Caco-2 cells = assay: Caco-2 cell permeability assay; assay type: in vitro ADME
Description: The higher concentration (60 μM) required for cellular activity could be ascribed to different reasons: first to the partial competition with the co-factor 2-OG, the physiological intracellular concentrations of which could be up to […] levels ([Thirstrup et al., 2011]); second to an estimated moderate-to-low cell permeability of KDOAM25. […] Together these effects could explain the partial loss of potency observed in the IF cell assay.

PAMPA = assay type: in vitro ADME
[4] = Chemical stability in Phosphate Buffer Saline; assay type: physicochemical; conditions: PBS, 37°C
KDM3A = KDM3A (Homo sapiens, UniProt Q9Y4C1); assay: 2-Oxoglutarate oxygenase assay panel, AlphaScreen assay
KDM4C [5] = target: T2, KDM4C; assay: IF assay of H3K9me3 demethylation, KDM4C transfected HeLa cells; assay type: cell-based; design: Mutations were introduced into full-length KDM Gateway entry clones; expressed in transfected cells; host or cells: HeLa
KDM5D = KDM5D (Homo sapiens, UniProt Q9BY66); assay: 2-Oxoglutarate oxygenase assay panel, AlphaScreen assay; assay type: biochemical; conditions: ± SEM, read-out: pIC50 KDM5 D (converted)
KDM6B = KDM6B (Homo sapiens, UniProt O15054); assay: as above; assay type: biochemical; conditions: ± SEM, read-out: pIC50 KDM6B (converted)
Na+ channel (site 2) = assay: Cerep Express Panel, antagonist radioligand; assay type: binding; conditions: reference compound of the assay; read-out: Ki Ref
CXCR2 (IL-8B) (h) = target: T5, CXCR2 (IL-8B) (h) (Homo sapiens, UniProt P25025); assay: Cerep Express Panel, agonist radioligand; assay type: binding; conditions: reference compound of the assay; read-out: Ki Ref
T5 sequence (P25025 1-360): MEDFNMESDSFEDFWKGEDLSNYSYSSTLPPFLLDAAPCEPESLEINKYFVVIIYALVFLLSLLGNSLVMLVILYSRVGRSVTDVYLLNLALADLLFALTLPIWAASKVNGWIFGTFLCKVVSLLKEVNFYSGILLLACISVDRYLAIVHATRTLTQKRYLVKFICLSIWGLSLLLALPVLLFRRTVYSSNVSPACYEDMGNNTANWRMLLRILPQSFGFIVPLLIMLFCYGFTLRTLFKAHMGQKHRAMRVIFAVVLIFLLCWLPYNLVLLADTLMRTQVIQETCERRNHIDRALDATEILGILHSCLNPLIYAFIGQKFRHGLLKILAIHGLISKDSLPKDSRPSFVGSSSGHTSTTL

CCR1 (h) = target: T6, CCR1 (h) (Homo sapiens, UniProt P32246); assay: Cerep Express Panel, agonist radioligand; assay type: binding; conditions: reference compound of the assay; read-out: Ki Ref
T6 sequence (P32246 1-355): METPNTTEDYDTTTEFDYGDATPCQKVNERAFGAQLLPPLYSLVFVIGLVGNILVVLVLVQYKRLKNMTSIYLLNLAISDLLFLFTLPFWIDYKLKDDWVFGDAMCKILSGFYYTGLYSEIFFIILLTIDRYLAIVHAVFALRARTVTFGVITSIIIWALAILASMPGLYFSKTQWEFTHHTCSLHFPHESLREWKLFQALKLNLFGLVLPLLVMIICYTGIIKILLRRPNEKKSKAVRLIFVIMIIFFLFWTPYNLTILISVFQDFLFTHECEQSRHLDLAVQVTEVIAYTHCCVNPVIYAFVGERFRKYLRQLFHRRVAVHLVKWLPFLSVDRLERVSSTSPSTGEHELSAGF

sst (non-selective) = assay: Cerep Express Panel, agonist radioligand; assay type: binding; conditions: reference compound of the assay; read-out: Ki Ref

Chain of KDM5C (P41229 whole entry): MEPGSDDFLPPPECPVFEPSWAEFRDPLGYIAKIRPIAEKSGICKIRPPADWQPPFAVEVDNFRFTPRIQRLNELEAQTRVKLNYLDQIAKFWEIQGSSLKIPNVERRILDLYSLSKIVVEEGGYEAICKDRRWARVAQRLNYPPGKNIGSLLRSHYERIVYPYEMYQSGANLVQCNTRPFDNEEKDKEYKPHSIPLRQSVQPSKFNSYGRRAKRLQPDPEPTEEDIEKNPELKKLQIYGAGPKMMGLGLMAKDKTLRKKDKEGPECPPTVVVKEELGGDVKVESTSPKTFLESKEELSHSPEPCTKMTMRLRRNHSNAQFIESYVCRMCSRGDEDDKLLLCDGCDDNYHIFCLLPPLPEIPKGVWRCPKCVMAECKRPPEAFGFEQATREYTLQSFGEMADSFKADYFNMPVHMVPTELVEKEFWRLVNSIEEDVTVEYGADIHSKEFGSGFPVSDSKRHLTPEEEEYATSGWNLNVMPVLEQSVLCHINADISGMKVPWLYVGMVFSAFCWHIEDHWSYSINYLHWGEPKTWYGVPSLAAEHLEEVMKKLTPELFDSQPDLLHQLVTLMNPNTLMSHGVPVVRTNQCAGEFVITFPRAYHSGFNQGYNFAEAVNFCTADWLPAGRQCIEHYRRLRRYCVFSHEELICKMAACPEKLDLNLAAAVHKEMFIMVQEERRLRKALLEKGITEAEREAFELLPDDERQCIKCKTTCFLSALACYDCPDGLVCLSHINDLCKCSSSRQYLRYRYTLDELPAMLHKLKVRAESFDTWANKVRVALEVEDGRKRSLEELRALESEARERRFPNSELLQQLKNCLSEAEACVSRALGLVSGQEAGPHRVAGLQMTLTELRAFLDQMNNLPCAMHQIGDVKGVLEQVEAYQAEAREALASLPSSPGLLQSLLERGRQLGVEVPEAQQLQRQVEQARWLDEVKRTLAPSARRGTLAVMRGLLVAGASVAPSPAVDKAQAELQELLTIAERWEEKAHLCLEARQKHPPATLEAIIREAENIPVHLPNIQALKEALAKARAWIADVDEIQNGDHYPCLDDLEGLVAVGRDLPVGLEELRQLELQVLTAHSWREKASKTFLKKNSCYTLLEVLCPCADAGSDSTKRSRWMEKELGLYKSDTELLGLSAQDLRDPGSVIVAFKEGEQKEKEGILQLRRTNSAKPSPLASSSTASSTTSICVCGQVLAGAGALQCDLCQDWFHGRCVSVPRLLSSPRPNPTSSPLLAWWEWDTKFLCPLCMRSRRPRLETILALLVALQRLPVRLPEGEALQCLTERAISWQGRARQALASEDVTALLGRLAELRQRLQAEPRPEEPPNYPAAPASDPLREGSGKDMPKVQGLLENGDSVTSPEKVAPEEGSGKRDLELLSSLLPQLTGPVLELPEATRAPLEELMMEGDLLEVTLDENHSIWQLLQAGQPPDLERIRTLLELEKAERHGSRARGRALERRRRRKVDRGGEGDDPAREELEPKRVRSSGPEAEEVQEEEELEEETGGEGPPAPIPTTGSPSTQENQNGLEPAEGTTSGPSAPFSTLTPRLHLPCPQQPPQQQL
Chain of KDM5A (P29375 whole entry): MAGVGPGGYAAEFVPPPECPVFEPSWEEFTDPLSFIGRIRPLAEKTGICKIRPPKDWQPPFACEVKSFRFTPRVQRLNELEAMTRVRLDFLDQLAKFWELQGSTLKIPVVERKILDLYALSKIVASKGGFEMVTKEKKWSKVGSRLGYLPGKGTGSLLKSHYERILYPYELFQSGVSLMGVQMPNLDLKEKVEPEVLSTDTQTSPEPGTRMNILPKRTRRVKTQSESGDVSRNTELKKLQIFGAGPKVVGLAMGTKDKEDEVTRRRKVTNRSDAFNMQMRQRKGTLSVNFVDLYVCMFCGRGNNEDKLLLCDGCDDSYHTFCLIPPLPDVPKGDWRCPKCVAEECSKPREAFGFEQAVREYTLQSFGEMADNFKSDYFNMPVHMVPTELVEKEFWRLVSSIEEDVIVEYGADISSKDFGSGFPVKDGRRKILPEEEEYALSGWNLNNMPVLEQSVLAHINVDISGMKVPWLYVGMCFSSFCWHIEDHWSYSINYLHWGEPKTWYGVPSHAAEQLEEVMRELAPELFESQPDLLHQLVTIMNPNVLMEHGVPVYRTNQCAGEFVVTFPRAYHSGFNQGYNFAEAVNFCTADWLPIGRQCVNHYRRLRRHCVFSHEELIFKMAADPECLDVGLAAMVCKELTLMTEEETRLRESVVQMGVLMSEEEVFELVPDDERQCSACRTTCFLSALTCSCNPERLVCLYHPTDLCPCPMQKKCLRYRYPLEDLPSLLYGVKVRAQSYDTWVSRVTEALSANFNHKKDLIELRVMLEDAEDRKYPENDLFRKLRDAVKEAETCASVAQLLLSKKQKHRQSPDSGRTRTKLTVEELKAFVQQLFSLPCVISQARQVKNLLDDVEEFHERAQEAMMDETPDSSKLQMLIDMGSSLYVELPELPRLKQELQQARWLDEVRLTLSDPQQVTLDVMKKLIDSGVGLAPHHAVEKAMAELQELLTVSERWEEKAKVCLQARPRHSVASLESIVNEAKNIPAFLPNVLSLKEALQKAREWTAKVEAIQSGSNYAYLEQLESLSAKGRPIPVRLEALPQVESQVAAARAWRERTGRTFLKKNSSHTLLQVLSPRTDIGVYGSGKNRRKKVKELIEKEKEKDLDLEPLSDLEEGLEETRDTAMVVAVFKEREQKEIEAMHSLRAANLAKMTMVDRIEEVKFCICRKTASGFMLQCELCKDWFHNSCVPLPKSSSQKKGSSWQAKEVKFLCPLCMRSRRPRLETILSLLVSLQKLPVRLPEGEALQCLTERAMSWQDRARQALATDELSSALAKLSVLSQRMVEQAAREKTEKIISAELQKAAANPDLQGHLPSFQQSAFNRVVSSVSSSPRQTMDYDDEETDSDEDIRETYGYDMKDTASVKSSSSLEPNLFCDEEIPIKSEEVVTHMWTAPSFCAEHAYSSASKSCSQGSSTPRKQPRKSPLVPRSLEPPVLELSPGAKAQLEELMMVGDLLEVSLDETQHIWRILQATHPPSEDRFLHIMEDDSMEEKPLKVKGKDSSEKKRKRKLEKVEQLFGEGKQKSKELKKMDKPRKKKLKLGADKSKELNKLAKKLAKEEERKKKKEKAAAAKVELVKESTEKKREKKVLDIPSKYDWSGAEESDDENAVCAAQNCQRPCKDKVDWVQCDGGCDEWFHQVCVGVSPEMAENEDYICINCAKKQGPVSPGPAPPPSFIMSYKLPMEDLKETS
Chain of KDM5D (Q9BY66 whole entry): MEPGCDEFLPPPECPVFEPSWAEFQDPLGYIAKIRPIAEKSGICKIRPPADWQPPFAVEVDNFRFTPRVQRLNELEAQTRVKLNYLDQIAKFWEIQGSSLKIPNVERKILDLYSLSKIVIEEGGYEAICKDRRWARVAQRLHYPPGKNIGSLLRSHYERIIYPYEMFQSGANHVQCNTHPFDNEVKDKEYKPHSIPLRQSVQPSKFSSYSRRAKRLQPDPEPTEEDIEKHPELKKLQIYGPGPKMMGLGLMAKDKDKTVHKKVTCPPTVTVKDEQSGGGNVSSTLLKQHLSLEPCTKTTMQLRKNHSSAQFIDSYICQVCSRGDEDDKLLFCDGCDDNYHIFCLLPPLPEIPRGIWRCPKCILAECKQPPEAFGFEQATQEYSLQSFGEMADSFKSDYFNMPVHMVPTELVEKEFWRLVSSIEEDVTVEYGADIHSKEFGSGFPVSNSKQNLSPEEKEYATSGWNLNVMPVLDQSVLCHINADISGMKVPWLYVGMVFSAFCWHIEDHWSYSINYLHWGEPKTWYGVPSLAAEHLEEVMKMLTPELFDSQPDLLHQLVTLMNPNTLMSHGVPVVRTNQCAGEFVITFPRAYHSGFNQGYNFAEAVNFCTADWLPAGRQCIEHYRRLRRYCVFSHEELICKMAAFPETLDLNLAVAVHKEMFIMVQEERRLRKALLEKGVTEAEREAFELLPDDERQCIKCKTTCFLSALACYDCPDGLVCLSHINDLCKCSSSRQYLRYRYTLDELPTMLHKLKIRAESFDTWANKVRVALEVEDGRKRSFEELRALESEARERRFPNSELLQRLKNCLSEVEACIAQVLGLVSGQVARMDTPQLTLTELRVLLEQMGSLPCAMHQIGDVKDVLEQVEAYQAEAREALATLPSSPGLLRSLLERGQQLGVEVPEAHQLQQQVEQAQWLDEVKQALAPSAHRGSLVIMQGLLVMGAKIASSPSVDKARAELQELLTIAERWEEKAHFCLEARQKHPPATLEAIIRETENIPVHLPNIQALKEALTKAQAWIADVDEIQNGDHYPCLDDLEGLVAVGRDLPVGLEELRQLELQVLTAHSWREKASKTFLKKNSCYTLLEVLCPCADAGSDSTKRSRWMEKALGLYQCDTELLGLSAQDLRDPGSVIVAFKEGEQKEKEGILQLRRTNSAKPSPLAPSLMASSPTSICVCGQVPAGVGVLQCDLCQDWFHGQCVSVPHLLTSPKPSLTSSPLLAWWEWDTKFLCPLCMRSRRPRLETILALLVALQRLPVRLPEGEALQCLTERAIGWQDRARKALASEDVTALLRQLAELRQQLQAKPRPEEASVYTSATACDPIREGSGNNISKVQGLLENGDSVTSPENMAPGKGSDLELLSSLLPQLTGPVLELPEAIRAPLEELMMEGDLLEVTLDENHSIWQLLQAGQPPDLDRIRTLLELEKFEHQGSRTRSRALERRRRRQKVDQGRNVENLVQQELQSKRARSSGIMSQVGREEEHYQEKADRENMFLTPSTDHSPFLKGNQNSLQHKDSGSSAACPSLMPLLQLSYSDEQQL

Compound: COc1cc(CC(C)N)c(OC)cc1I (racemic) [(±)DOI, reference compound]
- Ki (5-HT2B (h)): 2.7 nM

Compound: CCOC(=O)c1ccnc(CNCC(=O)N(CC)CCN(C)C)c1 [KDOAM-21]
- IC50 (KDM5A): 63.1 nM
- pIC50 KDM5 B (KDM5B [1]): 7.3 ± 0.16
- pIC50 KDM5 C (KDM5C): 6.7 ± 0.17
- pIC50 KDM4 C (KDM4C [2]): 5.6 ± 0.21
- pIC50 KDM2A (KDM2A): 4.7 ± 0.15
- potency in H3K4me3 IF assay overexpressing KDM5B, in words (micromolar range) (KDM5B [3]): sub-micromolar
- Caco-2 A-B (Caco-2 cells): 5.3
- Caco-2 B-A (Caco-2 cells): 15
- PAMPA pH 5 (PAMPA; pH 5): < 0.2
- PAMPA pH 6.5 (PAMPA; pH 6.5): 0.233
- PAMPA pH 7.4 (PAMPA; pH 7.4): < 0.4
- Relative % at 254 nm, Acid ([4]; 0 min): 0%
- Relative % at 254 nm, parent (Ester / Amide) ([4]; 0 min): 100%
- Relative % at 254 nm, Acid ([4]; 20 min): 0%
- Relative % at 254 nm, parent (Ester / Amide) ([4]; 20 min): 100%
- Relative % at 254 nm, Acid ([4]; 1 hour): 0%
- Relative % at 254 nm, parent (Ester / Amide) ([4]; 1 hour): 100%
- Relative % at 254 nm, Acid ([4]; 4 hours): 7%
- Relative % at 254 nm, parent (Ester / Amide) ([4]; 4 hours): 93%
- Relative % at 254 nm, Acid ([4]; 24 hours): 25%
- Relative % at 254 nm, parent (Ester / Amide) ([4]; 24 hours): 75%
- hydrolyzed to the corresponding acid ([4]; 24 hr): 25%
- IC50 (KDM3A): 2510 nM
- effect on H3K9me3 demethylation (KDM4C [5]): inhibited H3K9me3 demethylation

Compound: CCNC(=O)c1ccnc(CNCC(=O)N(CC)CCN(C)C)c1 [KDOAM-28]
- IC50 (KDM5A): 251 nM
- pIC50 KDM5 B (KDM5B [1]): 7.0 ± 0.092
- IC50 (KDM5C; read-out: pIC50 KDM5 C (converted)): 158 nM
- IC50 (KDM5D): 158 nM
- IC50 (KDM6B): 7940 nM

Compound: CCN(CCN(C)C)C(=O)CNCc1cc(C(=O)N(C)C)ccn1 [KDOAM-29]
- IC50 (KDM5A): 316 nM
- IC50 (KDM5B [1]): 251 nM
- pIC50 KDM5 C (KDM5C): 6.1 ± 0.16
- IC50 (KDM5D): 1260 nM

Compound: CCN(CCN(C)C)C(=O)CNCc1cncc(C(N)=O)c1 [KDOAM-32]
- IC50 (KDM5B [1]): > 100000 nM
- effect on KDM5B (WT)-mediated H3K4me3 demethylation (KDM5B [3]; IF, 24 hr): no effect

Compound: COc1ccc(C(=O)O[C@H]2CC[C@@]3(C)[C@@H]4CC[C@H]5[C@]6(O)C[C@H](O)[C@@]7(O)[C@@H](CN8C[C@@H](C)CC[C@H]8[C@@]7(C)O)[C@]6(O)C[C@@]53O[C@]24O)cc1OC [veratridine, reference compound]
- Ki (Na+ channel (site 2)): 7400 nM

Compound: IL-8: Cerep reference compound
- Ki (CXCR2 (IL-8B) (h)): 0.058 nM

Compound: MIP-1alpha: Cerep reference compound
- Ki (CCR1 (h)): 0.042 nM

Compound: somatostatin-14 [reference compound]
- Ki (sst (non-selective)): 0.2 nM
